# Legend:
# [1] = target: T1, STK10 (Homo sapiens, UniProt O94804); test: ProfilerPro kinase panel, % inhibition at […]; type: biochemical; conditions: 0.2 µM
# [2] = target: T2, ROCK1 (Homo sapiens, UniProt Q13464); test: ProfilerPro kinase panel, % inhibition at […]; type: biochemical; conditions: 0.2 µM
# [3] = target: T1, STK10; test: biochemical; conditions: read-out: % inhibition
# [4] = target: PKCdelta (Homo sapiens, UniProt Q05655); test: biochemical; conditions: read-out: % inhibition
# [5] = target: T3, MST1 (Homo sapiens, UniProt Q13043); test: biochemical; conditions: read-out: % inhibition
# T3 sequence (Q13043 1-487): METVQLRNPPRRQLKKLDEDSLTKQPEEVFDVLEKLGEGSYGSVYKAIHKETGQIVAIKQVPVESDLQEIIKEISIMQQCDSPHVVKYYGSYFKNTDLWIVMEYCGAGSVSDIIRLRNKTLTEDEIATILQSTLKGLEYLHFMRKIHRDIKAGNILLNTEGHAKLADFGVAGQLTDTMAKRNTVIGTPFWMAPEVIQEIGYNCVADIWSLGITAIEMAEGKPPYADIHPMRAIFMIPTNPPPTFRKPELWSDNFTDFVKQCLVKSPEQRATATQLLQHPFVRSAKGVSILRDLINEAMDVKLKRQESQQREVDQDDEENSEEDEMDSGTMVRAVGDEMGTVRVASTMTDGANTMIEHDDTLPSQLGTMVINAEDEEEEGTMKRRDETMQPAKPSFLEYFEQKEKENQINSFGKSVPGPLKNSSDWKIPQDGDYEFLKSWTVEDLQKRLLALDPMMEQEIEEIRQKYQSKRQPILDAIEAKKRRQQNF
# [6] = target: T4, PKCepsilon (Homo sapiens, UniProt Q02156); test: biochemical; conditions: read-out: % inhibition
# T4 sequence (Q02156 1-737): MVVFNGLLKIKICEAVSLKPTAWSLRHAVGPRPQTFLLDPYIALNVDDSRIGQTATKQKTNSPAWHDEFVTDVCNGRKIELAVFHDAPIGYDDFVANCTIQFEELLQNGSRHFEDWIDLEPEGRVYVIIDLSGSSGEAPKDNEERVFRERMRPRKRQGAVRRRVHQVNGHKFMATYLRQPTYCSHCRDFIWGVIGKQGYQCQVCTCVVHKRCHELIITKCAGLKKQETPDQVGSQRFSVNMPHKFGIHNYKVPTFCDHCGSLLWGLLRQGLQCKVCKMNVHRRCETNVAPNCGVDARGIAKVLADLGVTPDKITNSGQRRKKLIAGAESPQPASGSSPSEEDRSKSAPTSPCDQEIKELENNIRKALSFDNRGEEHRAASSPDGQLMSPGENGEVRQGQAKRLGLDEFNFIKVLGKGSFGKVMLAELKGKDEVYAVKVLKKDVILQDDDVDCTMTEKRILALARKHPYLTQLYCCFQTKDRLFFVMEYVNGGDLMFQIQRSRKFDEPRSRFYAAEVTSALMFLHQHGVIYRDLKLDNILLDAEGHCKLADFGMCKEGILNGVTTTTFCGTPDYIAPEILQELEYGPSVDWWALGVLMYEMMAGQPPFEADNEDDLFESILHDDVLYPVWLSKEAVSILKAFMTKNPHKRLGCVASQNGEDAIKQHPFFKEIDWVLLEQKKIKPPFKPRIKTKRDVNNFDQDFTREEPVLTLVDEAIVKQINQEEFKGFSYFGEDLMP
# [7] = target: PKA (Homo sapiens, UniProt P17612); test: biochemical; conditions: read-out: % inhibition
# [8] = target: RSK1 (Homo sapiens, UniProt Q15418); test: biochemical; conditions: read-out: % inhibition
# [9] = target: T5, PKG (Homo sapiens, UniProt Q13976); test: biochemical; conditions: read-out: % inhibition
# T5 sequence (Q13976 1-671): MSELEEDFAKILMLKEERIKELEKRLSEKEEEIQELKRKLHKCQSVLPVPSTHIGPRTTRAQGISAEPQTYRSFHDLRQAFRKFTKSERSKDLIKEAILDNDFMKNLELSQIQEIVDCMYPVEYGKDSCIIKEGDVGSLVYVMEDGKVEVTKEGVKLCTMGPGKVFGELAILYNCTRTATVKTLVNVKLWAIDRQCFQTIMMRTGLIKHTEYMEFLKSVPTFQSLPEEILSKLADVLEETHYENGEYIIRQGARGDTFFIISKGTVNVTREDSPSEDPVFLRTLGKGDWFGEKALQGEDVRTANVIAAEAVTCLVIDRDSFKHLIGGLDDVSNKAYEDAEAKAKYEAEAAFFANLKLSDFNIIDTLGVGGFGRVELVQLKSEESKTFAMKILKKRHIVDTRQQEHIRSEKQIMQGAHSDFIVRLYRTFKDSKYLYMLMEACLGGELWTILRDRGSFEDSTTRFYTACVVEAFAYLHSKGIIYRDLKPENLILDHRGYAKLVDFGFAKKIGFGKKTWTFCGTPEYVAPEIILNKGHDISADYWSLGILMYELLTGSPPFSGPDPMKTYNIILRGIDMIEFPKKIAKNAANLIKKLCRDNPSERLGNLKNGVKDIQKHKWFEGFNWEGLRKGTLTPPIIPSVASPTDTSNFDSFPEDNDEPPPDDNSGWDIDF
# [10] = target: T6, IKKbeta (Homo sapiens, UniProt O14920); test: biochemical; conditions: read-out: % inhibition
# T6 sequence (O14920 1-756): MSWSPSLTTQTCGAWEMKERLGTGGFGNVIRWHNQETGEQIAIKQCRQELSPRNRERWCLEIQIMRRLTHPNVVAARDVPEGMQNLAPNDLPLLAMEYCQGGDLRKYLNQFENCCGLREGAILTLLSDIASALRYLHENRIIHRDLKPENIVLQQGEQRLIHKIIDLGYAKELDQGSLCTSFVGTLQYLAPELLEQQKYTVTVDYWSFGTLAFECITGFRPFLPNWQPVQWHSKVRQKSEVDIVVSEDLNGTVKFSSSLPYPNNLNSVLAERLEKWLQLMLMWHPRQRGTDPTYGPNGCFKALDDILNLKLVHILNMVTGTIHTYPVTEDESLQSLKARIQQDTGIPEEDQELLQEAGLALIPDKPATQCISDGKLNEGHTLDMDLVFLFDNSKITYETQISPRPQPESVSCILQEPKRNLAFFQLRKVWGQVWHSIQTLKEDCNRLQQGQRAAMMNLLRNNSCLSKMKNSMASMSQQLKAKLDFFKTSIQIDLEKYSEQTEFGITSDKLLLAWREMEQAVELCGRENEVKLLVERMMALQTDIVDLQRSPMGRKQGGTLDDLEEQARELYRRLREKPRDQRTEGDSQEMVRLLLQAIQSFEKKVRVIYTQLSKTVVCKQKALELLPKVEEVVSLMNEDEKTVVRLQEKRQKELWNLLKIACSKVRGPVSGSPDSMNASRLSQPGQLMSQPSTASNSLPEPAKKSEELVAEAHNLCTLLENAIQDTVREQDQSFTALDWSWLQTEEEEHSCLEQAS
# [11] = target: T7, PKG1b (Homo sapiens, UniProt Q13976); test: biochemical; conditions: read-out: % inhibition
# T7 sequence (Q13976 1-671): T5 sequence (Q13976 1-671)
# [12] = target: T8, ARK5 (Homo sapiens, UniProt O60285); test: biochemical; conditions: read-out: % inhibition
# T8 sequence (O60285 1-661): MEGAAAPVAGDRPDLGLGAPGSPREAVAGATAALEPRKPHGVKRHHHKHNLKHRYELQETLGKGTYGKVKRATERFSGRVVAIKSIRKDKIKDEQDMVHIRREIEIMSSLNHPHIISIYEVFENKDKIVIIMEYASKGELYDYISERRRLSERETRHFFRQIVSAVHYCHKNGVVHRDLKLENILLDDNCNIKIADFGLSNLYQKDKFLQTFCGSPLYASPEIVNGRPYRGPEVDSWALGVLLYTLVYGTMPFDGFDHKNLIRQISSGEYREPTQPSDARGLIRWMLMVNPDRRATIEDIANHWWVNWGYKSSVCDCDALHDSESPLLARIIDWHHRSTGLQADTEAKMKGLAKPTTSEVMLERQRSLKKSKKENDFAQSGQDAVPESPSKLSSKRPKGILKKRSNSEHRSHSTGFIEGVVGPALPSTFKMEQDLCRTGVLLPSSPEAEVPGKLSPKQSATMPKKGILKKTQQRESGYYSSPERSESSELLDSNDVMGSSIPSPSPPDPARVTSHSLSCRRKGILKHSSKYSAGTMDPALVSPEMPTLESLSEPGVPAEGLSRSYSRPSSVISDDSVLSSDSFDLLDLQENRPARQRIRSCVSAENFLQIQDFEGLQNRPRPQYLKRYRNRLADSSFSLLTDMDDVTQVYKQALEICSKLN
# [13] = target: PKCbeta1 (Homo sapiens, UniProt P05771); test: biochemical; conditions: read-out: % inhibition
# [14] = target: RSK3 (Homo sapiens, UniProt Q15349); test: biochemical; conditions: read-out: % inhibition
# [15] = target: RSK2 (Homo sapiens, UniProt P51812); test: biochemical; conditions: read-out: % inhibition
# [16] = target: T9, PRKX (Homo sapiens, UniProt P51817); test: biochemical; conditions: read-out: % inhibition
# T9 sequence (P51817 1-358): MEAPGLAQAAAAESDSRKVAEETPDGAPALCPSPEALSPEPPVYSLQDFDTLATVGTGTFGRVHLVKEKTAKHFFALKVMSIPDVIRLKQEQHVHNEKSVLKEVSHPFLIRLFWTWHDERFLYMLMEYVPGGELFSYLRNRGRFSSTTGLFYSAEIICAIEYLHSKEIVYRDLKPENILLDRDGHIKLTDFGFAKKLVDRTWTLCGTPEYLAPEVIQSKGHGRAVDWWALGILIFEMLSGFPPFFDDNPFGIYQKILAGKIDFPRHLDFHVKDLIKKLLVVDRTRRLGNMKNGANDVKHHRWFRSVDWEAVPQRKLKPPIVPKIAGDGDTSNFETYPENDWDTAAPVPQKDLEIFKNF
# [17] = target: T2, ROCK1; test: biochemical; conditions: read-out: % inhibition
# [18] = target: T10, ROCK2 (Homo sapiens, UniProt O75116); test: biochemical; conditions: read-out: % inhibition
# [19] = target: T11, PKCtheta (Homo sapiens, UniProt Q04759); test: biochemical; conditions: read-out: % inhibition
# [20] = target: MNK1 (Homo sapiens, UniProt Q9BUB5); test: biochemical; conditions: read-out: % inhibition
# [21] = target: T10, ROCK2; test: ProfilerPro kinase panel, % inhibition at […]; type: biochemical; conditions: 0.2 µM
# [22] = target: T2, ROCK1; test: biochemical; conditions: read-out: Compound / OXA-06
# [23] = target: T10, ROCK2; test: ProfilerPro kinase panel, % inhibition at […]; type: biochemical; conditions: read-out: Compound / OXA-06
# [24] = target: T11, PKCtheta; test: ProfilerPro kinase panel, % inhibition at […]; type: biochemical; conditions: read-out: Compound / Y27632
# [25] = target: T1, STK10; test: ProfilerPro kinase panel, % inhibition at […]; type: biochemical; conditions: read-out: Compound / Y27632
# T10 sequence (O75116 whole entry): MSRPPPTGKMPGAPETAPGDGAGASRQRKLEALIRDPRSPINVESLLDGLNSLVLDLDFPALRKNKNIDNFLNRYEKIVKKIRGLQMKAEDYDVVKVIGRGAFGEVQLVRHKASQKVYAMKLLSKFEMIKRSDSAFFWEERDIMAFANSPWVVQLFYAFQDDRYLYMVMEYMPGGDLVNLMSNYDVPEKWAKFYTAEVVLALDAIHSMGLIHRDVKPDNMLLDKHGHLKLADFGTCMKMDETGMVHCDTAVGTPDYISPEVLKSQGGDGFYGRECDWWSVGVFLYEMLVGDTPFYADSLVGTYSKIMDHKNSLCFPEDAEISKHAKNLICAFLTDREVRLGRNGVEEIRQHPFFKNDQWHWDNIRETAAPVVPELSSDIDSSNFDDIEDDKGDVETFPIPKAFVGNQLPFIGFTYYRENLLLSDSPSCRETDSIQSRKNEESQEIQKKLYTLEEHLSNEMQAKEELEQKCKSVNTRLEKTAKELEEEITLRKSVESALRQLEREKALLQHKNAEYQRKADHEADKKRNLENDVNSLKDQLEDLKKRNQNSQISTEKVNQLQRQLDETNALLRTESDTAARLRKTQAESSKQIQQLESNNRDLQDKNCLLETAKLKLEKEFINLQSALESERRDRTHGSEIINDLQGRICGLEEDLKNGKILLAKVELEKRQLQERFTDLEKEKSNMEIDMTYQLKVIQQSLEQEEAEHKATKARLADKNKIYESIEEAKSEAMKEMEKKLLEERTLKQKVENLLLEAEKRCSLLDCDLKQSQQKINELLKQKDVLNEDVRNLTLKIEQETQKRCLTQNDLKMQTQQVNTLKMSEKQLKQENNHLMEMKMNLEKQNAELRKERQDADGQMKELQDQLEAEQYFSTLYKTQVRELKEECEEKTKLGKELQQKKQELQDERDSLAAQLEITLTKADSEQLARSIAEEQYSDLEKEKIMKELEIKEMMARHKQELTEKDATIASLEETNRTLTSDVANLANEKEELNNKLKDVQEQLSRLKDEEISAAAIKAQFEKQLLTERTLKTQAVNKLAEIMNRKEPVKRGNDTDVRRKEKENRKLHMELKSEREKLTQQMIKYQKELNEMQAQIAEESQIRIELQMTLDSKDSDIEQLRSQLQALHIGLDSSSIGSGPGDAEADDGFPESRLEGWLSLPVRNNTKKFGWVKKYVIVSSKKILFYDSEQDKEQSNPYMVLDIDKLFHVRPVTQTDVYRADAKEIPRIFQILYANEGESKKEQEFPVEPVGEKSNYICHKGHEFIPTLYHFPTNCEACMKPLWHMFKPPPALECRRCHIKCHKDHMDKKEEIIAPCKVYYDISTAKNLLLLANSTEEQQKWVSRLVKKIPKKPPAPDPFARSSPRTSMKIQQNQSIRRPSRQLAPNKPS
# T1 sequence (O94804 whole entry): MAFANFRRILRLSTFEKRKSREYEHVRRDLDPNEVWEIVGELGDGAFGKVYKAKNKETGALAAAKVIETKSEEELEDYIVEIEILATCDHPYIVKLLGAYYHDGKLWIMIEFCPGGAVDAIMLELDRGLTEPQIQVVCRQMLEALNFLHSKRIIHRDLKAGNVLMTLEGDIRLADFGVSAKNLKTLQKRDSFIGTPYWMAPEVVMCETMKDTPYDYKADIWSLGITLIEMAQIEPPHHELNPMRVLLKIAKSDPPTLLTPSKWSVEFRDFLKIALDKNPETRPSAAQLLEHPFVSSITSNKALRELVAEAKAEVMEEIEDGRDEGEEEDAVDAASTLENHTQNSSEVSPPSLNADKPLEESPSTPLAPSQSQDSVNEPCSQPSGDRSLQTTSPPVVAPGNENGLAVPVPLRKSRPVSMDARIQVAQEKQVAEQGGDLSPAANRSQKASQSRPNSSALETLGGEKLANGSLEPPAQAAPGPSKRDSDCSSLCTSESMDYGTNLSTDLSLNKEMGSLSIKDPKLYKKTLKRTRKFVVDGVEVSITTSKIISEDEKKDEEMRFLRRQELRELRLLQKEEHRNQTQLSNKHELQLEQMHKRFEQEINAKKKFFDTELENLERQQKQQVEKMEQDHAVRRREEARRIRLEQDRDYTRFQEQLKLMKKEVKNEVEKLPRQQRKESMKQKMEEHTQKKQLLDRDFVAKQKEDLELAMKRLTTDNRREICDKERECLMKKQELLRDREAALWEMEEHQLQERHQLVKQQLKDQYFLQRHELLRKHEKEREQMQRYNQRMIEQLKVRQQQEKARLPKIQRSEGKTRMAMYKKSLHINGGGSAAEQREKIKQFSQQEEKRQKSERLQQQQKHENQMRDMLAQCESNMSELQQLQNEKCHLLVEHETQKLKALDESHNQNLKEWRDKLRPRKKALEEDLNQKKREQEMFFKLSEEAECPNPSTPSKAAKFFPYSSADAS
# PKCdelta, sequence (Q05655 whole entry): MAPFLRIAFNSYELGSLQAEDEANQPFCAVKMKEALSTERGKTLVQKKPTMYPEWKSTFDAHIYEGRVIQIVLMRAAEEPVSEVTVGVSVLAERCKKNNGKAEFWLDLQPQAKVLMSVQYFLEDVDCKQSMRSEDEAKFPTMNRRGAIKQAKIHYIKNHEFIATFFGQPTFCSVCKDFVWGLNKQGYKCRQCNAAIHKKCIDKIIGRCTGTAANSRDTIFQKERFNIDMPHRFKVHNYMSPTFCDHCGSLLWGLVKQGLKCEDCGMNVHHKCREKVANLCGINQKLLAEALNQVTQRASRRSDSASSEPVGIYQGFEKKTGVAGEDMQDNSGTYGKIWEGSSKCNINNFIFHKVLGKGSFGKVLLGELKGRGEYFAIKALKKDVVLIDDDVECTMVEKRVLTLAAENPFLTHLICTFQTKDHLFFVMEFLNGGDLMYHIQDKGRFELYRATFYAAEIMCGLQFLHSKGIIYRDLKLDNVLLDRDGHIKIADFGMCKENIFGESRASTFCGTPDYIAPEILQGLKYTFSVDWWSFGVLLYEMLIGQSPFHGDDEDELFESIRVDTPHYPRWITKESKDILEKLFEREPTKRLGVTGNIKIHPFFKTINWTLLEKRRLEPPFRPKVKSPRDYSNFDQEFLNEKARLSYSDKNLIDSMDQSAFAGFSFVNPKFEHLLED
# T11 sequence (Q04759 whole entry): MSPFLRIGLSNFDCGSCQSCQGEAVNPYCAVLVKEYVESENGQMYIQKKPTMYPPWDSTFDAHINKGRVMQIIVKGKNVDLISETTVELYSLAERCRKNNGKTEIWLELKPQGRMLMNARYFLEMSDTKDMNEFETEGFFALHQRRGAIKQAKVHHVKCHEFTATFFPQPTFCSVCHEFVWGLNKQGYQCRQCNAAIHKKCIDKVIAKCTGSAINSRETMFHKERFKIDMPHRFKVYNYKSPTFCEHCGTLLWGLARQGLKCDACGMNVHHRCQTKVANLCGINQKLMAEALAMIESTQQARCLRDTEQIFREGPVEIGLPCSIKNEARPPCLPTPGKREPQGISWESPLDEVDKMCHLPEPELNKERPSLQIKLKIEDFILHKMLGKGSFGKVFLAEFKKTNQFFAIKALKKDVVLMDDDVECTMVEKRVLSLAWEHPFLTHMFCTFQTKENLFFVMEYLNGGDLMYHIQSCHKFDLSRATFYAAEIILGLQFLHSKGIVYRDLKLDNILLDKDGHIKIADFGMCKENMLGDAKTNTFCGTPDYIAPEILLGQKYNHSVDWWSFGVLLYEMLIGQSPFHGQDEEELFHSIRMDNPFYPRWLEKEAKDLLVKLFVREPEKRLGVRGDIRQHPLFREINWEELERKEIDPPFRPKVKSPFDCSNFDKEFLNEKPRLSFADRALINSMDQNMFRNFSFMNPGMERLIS
# MNK1, sequence (Q9BUB5 whole entry): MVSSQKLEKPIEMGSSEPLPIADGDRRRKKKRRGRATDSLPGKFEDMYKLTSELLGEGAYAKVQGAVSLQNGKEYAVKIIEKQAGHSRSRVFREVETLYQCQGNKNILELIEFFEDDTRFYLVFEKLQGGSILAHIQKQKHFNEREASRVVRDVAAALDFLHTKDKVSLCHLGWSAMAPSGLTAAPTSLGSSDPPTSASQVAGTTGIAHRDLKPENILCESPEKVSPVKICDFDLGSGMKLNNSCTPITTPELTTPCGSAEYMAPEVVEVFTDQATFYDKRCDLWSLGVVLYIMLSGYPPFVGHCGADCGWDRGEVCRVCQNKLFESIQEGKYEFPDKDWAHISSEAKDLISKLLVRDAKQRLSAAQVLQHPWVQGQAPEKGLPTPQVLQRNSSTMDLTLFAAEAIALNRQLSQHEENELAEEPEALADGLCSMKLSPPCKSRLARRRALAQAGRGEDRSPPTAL
# PKCbeta1, sequence (P05771 whole entry): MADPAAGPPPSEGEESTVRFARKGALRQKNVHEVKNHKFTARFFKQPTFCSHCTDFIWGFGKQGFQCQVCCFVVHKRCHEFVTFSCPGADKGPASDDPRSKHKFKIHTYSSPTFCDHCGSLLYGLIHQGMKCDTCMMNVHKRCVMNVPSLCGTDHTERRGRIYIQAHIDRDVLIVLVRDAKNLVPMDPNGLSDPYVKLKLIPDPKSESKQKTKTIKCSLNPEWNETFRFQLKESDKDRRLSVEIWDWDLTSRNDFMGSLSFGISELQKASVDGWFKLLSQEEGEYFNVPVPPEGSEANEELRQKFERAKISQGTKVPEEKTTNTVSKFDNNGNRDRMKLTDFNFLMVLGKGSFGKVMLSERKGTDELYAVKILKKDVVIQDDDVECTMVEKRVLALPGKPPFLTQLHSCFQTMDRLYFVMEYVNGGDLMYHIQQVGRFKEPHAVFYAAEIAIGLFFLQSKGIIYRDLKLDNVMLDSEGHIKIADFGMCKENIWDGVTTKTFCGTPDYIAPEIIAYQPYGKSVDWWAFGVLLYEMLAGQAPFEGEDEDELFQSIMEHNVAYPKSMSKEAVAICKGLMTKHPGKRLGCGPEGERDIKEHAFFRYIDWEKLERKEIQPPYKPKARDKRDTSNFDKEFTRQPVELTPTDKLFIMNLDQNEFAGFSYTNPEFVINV
smiles,measurement,setting,value
Fc1ccccc1CNCc1ccc(-c2ccnc3[nH]ccc23)cc1 [OXA-06],Compound / OXA-06,[1],58
same,Compound / OXA-06,[2],94
same,inhibition at 0.2 µM,[3],58%
same,inhibition at 0.2 µM,[4],36%
same,inhibition at 0.2 µM,[5],19%
same,inhibition at 0.2 µM,[6],26%
same,inhibition at 0.2 µM,[7],98%
same,inhibition at 0.2 µM,[8],6%
same,inhibition at 0.2 µM,[9],72%
same,inhibition at 0.2 µM,[10],56%
same,inhibition at 0.2 µM,[11],73%
same,inhibition at 0.2 µM,[12],56%
same,inhibition at 0.2 µM,[13],-3%
same,inhibition at 0.2 µM,[14],10%
same,inhibition at 0.2 µM,[15],17%
same,inhibition at 0.2 µM,[16],56%
same,inhibition at 0.2 µM,[17],94%
same,inhibition at 0.2 µM,[18],95%
same,inhibition at 0.2 µM,[19],12%
same,inhibition at 0.2 µM,[20],16%
same,Compound / OXA-06,[21],95
C[C@@H](N)[C@H]1CC[C@H](C(=O)Nc2ccncc2)CC1 [Y-27632],inhibition at 10 µM,[22],94%
same,inhibition at 10 µM,[23],95%
same,inhibition at 10 µM,[24],82%
same,inhibition at 10 µM,[4],55%
same,inhibition at 10 µM,[5],59%
same,inhibition at 10 µM,[7],29%
same,inhibition at 10 µM,[8],51%
same,inhibition at 10 µM,[9],64%
same,inhibition at 10 µM,[10],82%
same,inhibition at 10 µM,[11],68%
same,inhibition at 10 µM,[12],1%
same,inhibition at 10 µM,[13],52%
same,inhibition at 10 µM,[14],82%
same,inhibition at 10 µM,[16],78%
same,inhibition at 10 µM,[20],78%
same,inhibition at 10 µM,[25],87%

# Reference: PMC3810962 (Cancer research, 2012)
